Data published in patent publication US11331337B2, “Heparin and heparan sulphate oligosaccharides” (Agency for Science, Technology and Research, priority 2017, dated 2022).

Legend:
[1] = target: T1, BMP-2 (Homo sapiens, UniProt P12643); assay: Surface plasmon resonance BMP-2 competitive binding assay; conditions: 10 μg/mL pre-incubated with BMP-2 25 nM, applied to heparin-coated SPR chip
T1 construct: purchased R&D Systems Inc. (U.S.A.)
T1 sequence (P12643 283-396): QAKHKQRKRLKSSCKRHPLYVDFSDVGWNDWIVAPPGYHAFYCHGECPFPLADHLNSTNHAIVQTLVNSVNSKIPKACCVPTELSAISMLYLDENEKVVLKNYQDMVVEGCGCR
Protocol: Briefly, 20 mg heparin was biotinylated at free amine groups using 8.6 μM NHS-biotin in dimethyl sulfoxide, after which excess unreacted NHS-biotin was removed by passing the sample through two 7 kDa molecular weight cut-off Zeba spin desalting columns. […] Heparin oligosaccharides were used at a concentration of 10 μg/mL in HBS-EP 0.1% buffer (HBS-EP with 0.1% (v/v) Tween-20). […] The response was measured as a function of time at 25° C. R.U.s for the heparin surface were determined by subtracting the R.U. of the control (uncoated) flow channel from those of the heparin-biotin-coated flow channel. Representative sensorgrams from all competitive binding experiments may be found in supplementary information (FIG. 1). […] Data constitutes the mean±S.D. of three independent experiments.

[2] = tested on: C2C12 cells; assay: Alkaline phosphatase (ALP) activity assay in C2C12 cells; assay type: cell-based, murine; conditions: with BMP-2 100 ng/mL, 5 μg/mL, 3 days
Protocol: C2C12 cells were maintained as described above and seeded at 2×10^4 cells/cm2 in tissue culture treated 24-well plates. The cells were cultured in treatment media for 3 days, after which total protein was extracted and ALP activity was determined. Briefly, cells were washed with PBS and total protein extracted with RIPA buffer containing a protease inhibitor cocktail. Total protein concentration was determined using the BCA assay, then 7.5 μg of total protein per condition was combined with p-nitrophenylphosphate (Thermo-Fisher). […] Data represents mean±S.D. of three independent experiments.

With dextran sulfate the “percentage of BMP-2 sequestered in solution (reduction in response units vs. BMP-2 alone)” value [1] was “able to bind BMP-2 with high affinity” and the “BMP-2-induced ALP activity” value [2] was “inhibited BMP-2 bioactivity in vitro”.
